In patent US9456995B2, “Methods for inhibition of BNIP3 and prevention and treatment of ischemia reperfusion injury by tetra-O-methyl nordihydroguaiaretic acid” (THE JOHNS HOPKINS UNIVERSITY, priority 2012, dated 2016):

Legend:
[1] = test system: mitochondrial permeability transition pore (mPTP); experiment: Mitochondrial permeability transition pore (mPTP) openings by confocal microscopy in HL-1 cells; format: cell-based, mouse; details: M4N at 5-20 μM, hypoxia 6 hours then normoxia 8 hours, data not shown
Experimental: Measurement of mitochondrial permeability transition pore (mPTP) openings. The mPTP was measured by Image-iT LIVE Mitochondria Transition Pore Assay Kit (Molecular Probes, Eugene Oreg.). The cells were first washed with Hank's Balanced Salt Solution (HBSS) with sodium bicarbonate, calcium, and magnesium that also included HEPES (10 mM), L-glutamine (2 mM) and succinate (100 μM) to support healthy mitochondrial function (modified HBSS). The cells were then labeled with calcein-AM (1.0 μM) and MitoTracker Red CMSRos dye ([…]) in modified HBSS with […] CoCl2 for 15 minutes. After the medium was changed to the normal HL-1 culture medium, the cells were treated with M4N at various concentrations (0, 5, 10, 20, 40, and 80 μM). The cells were incubated under hypoxia for 6 hours, followed with under normoxia for 8 hours. After the cells were washed with modified HBSS, they were examined by B29/Zeiss LSM 510 META laser confocal microscope (Carl Zeiss, Jena, Germany) for calcein at FITC settings and for MitoTracker at rhodamine settings.

LNCAP cells = experiment: Mitochondrial metabolism and membrane potential in LNCaP cells; format: cell-based, human; details: data not shown
HL-1 mouse heart cells [2] = experiment: Trypan blue exclusion assay of cell death under hypoxia or normoxia in HL-1 cells; format: cell-based; details: M4N at 20 μM, FIG. 2
Experimental: Cell Culture. HL-1 mouse heart cell line was a kind gift from Dr. Claycomb (LSU Health Science Centers, New Orleans La.) (Proc. Natl. Acad. Sci. U.S.A., 95: 2979-84 (1998)). HL-1 cells were cultured in Claycomb medium (Sigma, Saint Louis, Mo.) supplemented with FBS (10%), Norepinephrine (0.1 mM), L-Glutamine (2 mM), penicillin (100 units/ml) and streptomycin (100 μg/ml). Drugs were dissolved in dimethyl sulfoxide at the final concentrations in the medium less than 0.1%. When the cells were indicated to be cultured under hypoxic conditions, the cells were incubated at the oxygen concentration of 0.5% in the hypoxic chamber (BioSpherix Ltd, Lacona, N.Y.). For the Trypan blue exclusion assay, the cells were washed with PBS (−) once and resuspended in PBS (−) again. […] In about 5 to 15 minutes the numbers of both the cells without staining and the cells with staining were counted. The percentages of the number of the cells with staining to the total cell number (which equals to the number of the cells with staining and that of the cells without staining) were calculated. […] For the hypoxia treatment the cells were cultured under 0.5% oxygen concentration in a hypoxic chamber for 6 hours and returned the cells back to normoxic condition in a normal culture chamber, and then cell death was measured 18 hours later. […]

HL-1 mouse heart cells [3] = experiment: TUNEL assay of cell death induced by hypoxia in HL-1 cells; format: cell-based; details: M4N at 5-20 μM; 6 hour hypoxia (0.5% oxygen) followed with 18 hour normoxia; FIG. 1
Experimental: Cell Culture. HL-1 mouse heart cell line was a kind gift from Dr. Claycomb (LSU Health Science Centers, New Orleans La.) (Proc. Natl. Acad. Sci. U.S.A., 95: 2979-84 (1998)). HL-1 cells were cultured in Claycomb medium (Sigma, Saint Louis, Mo.) supplemented with FBS (10%), Norepinephrine (0.1 mM), L-Glutamine (2 mM), penicillin (100 units/ml) and streptomycin (100 μg/ml). Drugs were dissolved in dimethyl sulfoxide at the final concentrations in the medium less than 0.1%. When the cells were indicated to be cultured under hypoxic conditions, the cells were incubated at the oxygen concentration of 0.5% in the hypoxic chamber (BioSpherix Ltd, Lacona, N.Y.). Cell death assay. Terminal deoxynucleotidyl transferase dUTP nick end labeling (TUNEL) assay was conducted by using TUNEL apoptosis detection kits (Upstate, Temecula, Calif.), with some modifications. The cells were cultured in 12-well microwell culture dishes (Corning Inc., Corning, N.Y.). After the treatment, both the cells floating in the tissue culture medium and those attached to the bottoms of wells were collected together into plastic tubes. […] For the hypoxia treatment the cells were cultured under 0.5% oxygen concentration in a hypoxic chamber for 6 hours and returned the cells back to normoxic condition in a normal culture chamber, and then cell death was measured 18 hours later. […]

[4] = numerous clinical trials as an anticancer drug; cited from earlier work
BNIP3 [5] = experiment: BNIP3 expression in human cancer cells (LNCaP, PC3, MCF-7, HepG2); format: cell-based
HL-1 mouse heart cells [6] = experiment: UCN-01-induced cell death in HL-1 cells, Trypan blue exclusion assay; format: cell-based; details: M4N around 20 μM; UCN-01 (0.2 μM) for 24 hours; FIG. 4
Experimental: FIG. 4 depicts the effect of M4N on cell death induced by UCN-01 treatment in HL-1 mouse heart cells. The cells were treated with M4N followed with UCN-01 (0.2 μM) treatment for 24 hours. The cell death was measured with Trypan Blue exclusion assay. The asterisk indicates a statistically significant difference by t-test at the error rate of less than 2%. For the Trypan blue exclusion assay, the cells were washed with PBS (−) once and resuspended in PBS (−) again. One part of the resuspended cell solution was mixed with one part of 0.4% Trypan blue solution (Sigma). In about 5 to 15 minutes the numbers of both the cells without staining and the cells with staining were counted. The percentages of the number of the cells with staining to the total cell number (which equals to the number of the cells with staining and that of the cells without staining) were calculated. Effect of M4N on UCN-01-inducing cell death. Next, the effect of M4N on the cell death induced by UCN-01, an anticancer drug, in HL-1 cells (FIG. 4) was examined.

BNIP3 [7] = experiment: BNIP3 expression by western blotting in HL-1 cells under hypoxia; format: cell-based, mouse; details: M4N at 10-40 μM; hypoxia for 6 hours then normoxia for 18 hours; FIG. 3
Experimental: Cell Culture. HL-1 mouse heart cell line was a kind gift from Dr. Claycomb (LSU Health Science Centers, New Orleans La.) (Proc. Natl. Acad. Sci. U.S.A., 95: 2979-84 (1998)). HL-1 cells were cultured in Claycomb medium (Sigma, Saint Louis, Mo.) supplemented with FBS (10%), Norepinephrine (0.1 mM), L-Glutamine (2 mM), penicillin (100 units/ml) and streptomycin (100 μg/ml). Drugs were dissolved in dimethyl sulfoxide at the final concentrations in the medium less than 0.1%. When the cells were indicated to be cultured under hypoxic conditions, the cells were incubated at the oxygen concentration of 0.5% in the hypoxic chamber (BioSpherix Ltd, Lacona, N.Y.). Western blotting. After cells had been grown in […] flasks and treated with reagents, the cells were washed with PBS (−) three times and suspended in RIPA buffer (150 mM NaCl, 50 mM Tris-HCl (pH 8.0), 0.1% SDS, 1% NP40, and 0.5% deoxycholate) supplemented with protease inhibitor cocktail (Calbiochem, San Diego, Calif.). The sample volumes were adjusted by the total protein amount. Protein assay was performed by Bio-Rad Protein Assay (Bio-Rad Laboratories, Inc. Hercules, Calif.). […] The signals were detected by western blot chemiluminescence reagent plus (New England Nuclear Life Science Products, Boston, Mass.). […]

COc1ccc(C[C@@H](C)[C@@H](C)Cc2ccc(OC)c(OC)c2)cc1OC [M4N, tetra-o-methyl nordihydroguaiaretic acid]
mPTP openings induced by hypoxia [1]: suppressed mPTP openings induced by hypoxia | mitochondrial membrane potential (ΔΨm) (LNCAP cells): induce hyperpolarization of ΔΨm | mitochondrial metabolism (LNCAP cells): suppress mitochondrial metabolism | cell death induced by hypoxia, Trypan blue exclusion assay (HL-1 mouse heart cells [2]; either 6 hour hypoxia with additional 18 hour normoxia or 24 hour hypoxia): reduced the cell death induced by hypoxia | cell death under normoxic condition, Trypan blue exclusion assay (HL-1 mouse heart cells [2]; normoxic condition, compared with the control): reduced cell death compared with the control | TUNEL-positive cell death induced by hypoxia (HL-1 mouse heart cells [3]): reduced the cell death induced by hypoxia | toxicity and safety in clinical trials [4]: very nontoxic and safe drug | BNIP3 expression at the transcription level (BNIP3 [5]; LNCaP human prostate cancer cells, internal data not shown): blocks BNIP3 expression | expression of BNIP3 in various cancer cells (BNIP3 [5]; LNCaP, PC3, MCF-7, HepG2 cells, previously found): reduced the expression of BNIP3 | UCN-01-mediated cell death, Trypan blue exclusion assay (HL-1 mouse heart cells [6]): reduced UCN-01-mediated cell death | BNIP3 expression (western blotting) (BNIP3 [7]): suppressed
